Measurements taken from PubChem BioAssay AID2060490 (Molecular Pharmacology Branch, DTP, NCI, 2025).

System: 885512-296-R-J2-PDC complex spheroid viability
Experiment: Anticancer human tumor 885512-296-R-J2-PDC patient-derived breast carcinoma cell line growth inhibition [GQUAD]
Conditions: for IC50: curve of first compound; for viability, T/C: stronger effect = lower value
In short: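 Tumor cells were grown as complex spheroids with HUVEC endothelial cells and mesenchymal stem cells as stroma. G-quadruplex stabilizers were combined with targeted agents over half-log dilutions from near the clinical Cmax, or from 10 microM.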

[1] = second compound 0.0316 µM, first compound 0.0316 µM
[2] = second compound 0.0316 µM, first compound 0.1 µM
[3] = second compound 0.0316 µM, first compound 0.316 µM
[4] = second compound 0.0316 µM, first compound 1 µM
[5] = second compound 0.0316 µM, first compound 3.16 µM
[6] = second compound 0.0316 µM, first compound 10 µM
[7] = second compound 0.1 µM, first compound 0.0316 µM
[8] = second compound 0.1 µM, first compound 0.1 µM
[9] = second compound 0.1 µM, first compound 0.316 µM
[10] = second compound 0.1 µM, first compound 1 µM
[11] = second compound 0.1 µM, first compound 3.16 µM
[12] = second compound 0.1 µM, first compound 10 µM
[13] = second compound 0.316 µM, first compound 0.0316 µM
[14] = second compound 0.316 µM, first compound 0.1 µM
[15] = second compound 0.316 µM, first compound 0.316 µM
[16] = second compound 0.316 µM, first compound 1 µM
[17] = second compound 0.316 µM, first compound 3.16 µM
[18] = second compound 0.316 µM, first compound 10 µM
[19] = second compound 1 µM, first compound 0.0316 µM
[20] = second compound 1 µM, first compound 0.1 µM
[21] = second compound 1 µM, first compound 0.316 µM
[22] = second compound 1 µM, first compound 1 µM
[23] = second compound 1 µM, first compound 3.16 µM
[24] = second compound 1 µM, first compound 10 µM
[25] = second compound 3.16 µM, first compound 0.0316 µM
[26] = second compound 3.16 µM, first compound 0.1 µM
[27] = second compound 3.16 µM, first compound 0.316 µM
[28] = second compound 3.16 µM, first compound 1 µM
[29] = second compound 3.16 µM, first compound 3.16 µM
[30] = second compound 3.16 µM, first compound 10 µM
[31] = second compound 10 µM, first compound 0.0316 µM
[32] = second compound 10 µM, first compound 0.1 µM
[33] = second compound 10 µM, first compound 0.316 µM
[34] = second compound 10 µM, first compound 1 µM
[35] = second compound 10 µM, first compound 3.16 µM
[36] = second compound 10 µM, first compound 10 µM
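Note: spheroids exposed to the compounds for one week.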
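Throughout, for viability, T/C: percent of tumor spheroid viability relative to DMSO vehicle control wells.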

CC(C)n1c(=O)n(C)c2cnc3cc(F)c(-c4ccc(OCCCN5CCCCC5)nc4)cc3c21 + Cc1cnc(CNC(=O)c2c(=O)c3ccc(N4CCCN(C)CC4)nc3n3c2sc2ccccc23)cn1
IC50 (second compound 0.0316 µM): < 31.6 nM | IC50 (second compound 0.1 µM): < 31.6 nM | IC50 (second compound 0.316 µM): < 31.6 nM | IC50 (second compound 1 µM): < 31.6 nM | IC50 (second compound 3.16 µM): < 31.6 nM | IC50 (second compound 10 µM): < 31.6 nM | viability, T/C [1]: 28.4% | viability, T/C [2]: 20.2% | viability, T/C [3]: 26.6% | viability, T/C [4]: 39.4% | viability, T/C [5]: 46.5% | viability, T/C [6]: 49.1% | viability, T/C [7]: 15% | viability, T/C [8]: 16.6% | viability, T/C [9]: 24% | viability, T/C [10]: 18.1% | viability, T/C [11]: 31.6% | viability, T/C [12]: 30.8% | viability, T/C [13]: 13.3% | viability, T/C [14]: 13.1% | viability, T/C [15]: 12.6% | viability, T/C [16]: 16.9% | viability, T/C [17]: 14.6% | viability, T/C [18]: 19.5% | viability, T/C [19]: 18.1% | viability, T/C [20]: 16.6% | viability, T/C [21]: 16.4% | viability, T/C [22]: 18% | viability, T/C [23]: 23.2% | viability, T/C [24]: 12.4% | viability, T/C [25]: 21.9% | viability, T/C [26]: 23.4% | viability, T/C [27]: 21.7% | viability, T/C [28]: 21.8% | viability, T/C [29]: 24.8% | viability, T/C [30]: 9.39% | viability, T/C [31]: 0.15% | viability, T/C [32]: 0.19% | viability, T/C [33]: 0.2% | viability, T/C [34]: 0.17% | viability, T/C [35]: 0.16% | viability, T/C [36]: 0.16%

CC1COCCN1c1cc(-c2ccnn2C)c2ccnc(-c3ccn[nH]3)c2n1 (stereo unspecified) + Cc1cnc(CNC(=O)c2c(=O)c3ccc(N4CCCN(C)CC4)nc3n3c2sc2ccccc23)cn1
IC50 (second compound 0.0316 µM): < 31.6 nM | IC50 (second compound 0.1 µM): < 31.6 nM | IC50 (second compound 0.316 µM): < 31.6 nM | IC50 (second compound 1 µM): < 31.6 nM | IC50 (second compound 3.16 µM): < 31.6 nM | IC50 (second compound 10 µM): < 31.6 nM | viability, T/C [1]: 7.27% | viability, T/C [2]: 3% | viability, T/C [3]: 3.14% | viability, T/C [4]: 2.98% | viability, T/C [5]: 4.32% | viability, T/C [6]: 6.71% | viability, T/C [7]: 7.98% | viability, T/C [8]: 3.24% | viability, T/C [9]: 2.68% | viability, T/C [10]: 3.6% | viability, T/C [11]: 4.73% | viability, T/C [12]: 6.8% | viability, T/C [13]: 6.5% | viability, T/C [14]: 4.72% | viability, T/C [15]: 4.23% | viability, T/C [16]: 4.64% | viability, T/C [17]: 5.38% | viability, T/C [18]: 6.91% | viability, T/C [19]: 7.32% | viability, T/C [20]: 5.67% | viability, T/C [21]: 4.04% | viability, T/C [22]: 5.5% | viability, T/C [23]: 6.49% | viability, T/C [24]: 7.5% | viability, T/C [25]: 0.41% | viability, T/C [26]: 0.9% | viability, T/C [27]: 0.43% | viability, T/C [28]: 5.3% | viability, T/C [29]: 6.82% | viability, T/C [30]: 6.13% | viability, T/C [31]: 0.03% | viability, T/C [32]: 0.1% | viability, T/C [33]: 0.12% | viability, T/C [34]: 0.06% | viability, T/C [35]: 0.1% | viability, T/C [36]: 0.11%

CC1COCCN1c1cc(C2(O)CC3CCC(C2)O3)c2cnn(-c3ccn[nH]3)c2n1 (stereo unspecified) + Cc1cnc(CNC(=O)c2c(=O)c3ccc(N4CCCN(C)CC4)nc3n3c2sc2ccccc23)cn1
IC50 (second compound 0.0316 µM): < 31.6 nM | IC50 (second compound 0.1 µM): < 31.6 nM | IC50 (second compound 0.316 µM): < 31.6 nM | IC50 (second compound 1 µM): < 31.6 nM | IC50 (second compound 3.16 µM): < 31.6 nM | IC50 (second compound 10 µM): < 31.6 nM | viability, T/C [1]: 5.92% | viability, T/C [2]: 3.36% | viability, T/C [3]: 3.06% | viability, T/C [4]: 4.49% | viability, T/C [5]: 5.92% | viability, T/C [6]: 7.8% | viability, T/C [7]: 5.95% | viability, T/C [8]: 3.36% | viability, T/C [9]: 3.12% | viability, T/C [10]: 4.44% | viability, T/C [11]: 6.08% | viability, T/C [12]: 7% | viability, T/C [13]: 4.59% | viability, T/C [14]: 4.72% | viability, T/C [15]: 4.92% | viability, T/C [16]: 5.25% | viability, T/C [17]: 7.22% | viability, T/C [18]: 7.55% | viability, T/C [19]: 6.13% | viability, T/C [20]: 4.5% | viability, T/C [21]: 5.8% | viability, T/C [22]: 6.61% | viability, T/C [23]: 7.78% | viability, T/C [24]: 6.44% | viability, T/C [25]: 2.58% | viability, T/C [26]: 3.35% | viability, T/C [27]: 4.73% | viability, T/C [28]: 4.41% | viability, T/C [29]: 2.5% | viability, T/C [30]: 1.93% | viability, T/C [31]: 0.03% | viability, T/C [32]: 0.09% | viability, T/C [33]: 0.14% | viability, T/C [34]: 0.07% | viability, T/C [35]: 0.12% | viability, T/C [36]: 0.12%
